Experimental data published in patent US8466184B2, “Biocide” (Titan Chemicals Limited, priority 2011, dated 2013).

Assays:
[1] = Measuring stability of water solutions (temperature at which the solution remained fluid after 24 hours and seeding); type: physicochemical; conditions: after 24 hours and seeding with seed crystal
Protocol: According to the invention there is therefore provided a composition consisting essentially of water and the tetramethylammonium salt of 1,2-benzisothiazolin-3-one having a freezing point of less than about 0° C., such as less than about −1° C. for example less than about −3° C., about −5° C., about −10° C., about −15° C., about −20° C., about −25° C. or −30° C. As used herein the expression “freezing point” means that the composition is fluid after 24 hours and seeded with solid tetramethylammonium salt of 1,2-benzisothiazolin-3-one.
A series of solutions of tetramethylammonium BIT in distilled water were prepared. In series of experiments the temperature at which the solution remained fluid after 24 hours and seeding with a seed crystal of tetramethylammonium BIT was measured.

[2] = 59 wt % tetramethylammonium BIT (40 wt % BIT) in water; after storage for 24 hours and seeding; cited from earlier work

Structure (SMILES): C[N+](C)(C)C.O=c1[n-]sc2ccccc12 [tetramethylammonium BIT, tetramethylammonium salt of 1,2-benzisothiazolin-3-one]
- Temp at which the solution remained fluid ([1]; 20.3 % BIT concn in distilled water): −5 °C
- Temp at which the solution remained fluid ([1]; 25.3 % BIT concn in distilled water): −8 °C
- Temp at which the solution remained fluid ([1]; 30.4 % BIT concn in distilled water): −13 °C
- Temp at which the solution remained fluid ([1]; 35.6 % BIT concn in distilled water): −20 °C
- Temp at which the solution remained fluid ([1]; 39.3 % BIT concn in distilled water): −32 °C
- Temp at which the solution remained fluid ([1]; 42.6 % BIT concn in distilled water): −10 °C
- Temp at which the solution remained fluid ([1]; 45 % BIT concn in distilled water): 5 °C
- freezing point of lowest freezing point water solution [2]: 3 °C
